Drawing on patent publication US20060052376A1, “Carboxamides” (Merck Patent GmbH, priority 2002, published 2006), this text covers IC50 for four compounds.

One assay has as its target FXa (Homo sapiens, UniProt P00742). Put plainly: Factor Xa inhibition (FXa-IC50). It is filed as biochemical. From the text:
The inhibition of factor Xa by the compounds according to the invention and the measurement of the anticoagulant and antithrombotic activity can be determined by conventional in-vitro or in-vivo methods. A suitable method is described, for example, by J. Hauptmann et al. in Thrombosis and Haemostasis 1990, 63, 220-223.
The inhibition of factor Xa can be measured, for example by the method of T. Hara et al. in Thromb. Haemostas. 1994, 71, 314-319.

The next assay concerns the target TF/FVIIa (Homo sapiens, UniProt P08709). The assay can be described thus: TF/FVIIa inhibition (TF/FVIIa-IC50). It is filed as biochemical. An excerpt: Coagulation factor VIIa initiates the extrinsic part of the coagulation cascade after binding to tissue factor and contributes to the activation of factor X to give factor Xa. Inhibition of factor Vila thus prevents the formation of factor Xa and thus subsequent thrombin formation. The inhibition of factor Vila by the compounds according to the invention and the measurement of the anticoagulant and antithrombotic activity can be determined by conventional in-vitro or in-vivo methods. A conventional method for the measurement of the inhibition of factor VIIa is described, for example, by H. F. Ronning et al. in Thrombosis Research 1996, 84, 73-81.

Chain of FXa (P00742 235-488 limits assumed): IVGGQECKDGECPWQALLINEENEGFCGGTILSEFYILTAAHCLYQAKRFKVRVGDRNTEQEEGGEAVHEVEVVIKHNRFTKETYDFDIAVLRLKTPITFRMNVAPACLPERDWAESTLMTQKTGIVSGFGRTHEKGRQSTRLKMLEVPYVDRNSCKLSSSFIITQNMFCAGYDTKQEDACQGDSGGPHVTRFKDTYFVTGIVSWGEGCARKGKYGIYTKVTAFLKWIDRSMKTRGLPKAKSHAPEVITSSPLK
Chain of FXa (P00742 41-179 partner limits assumed): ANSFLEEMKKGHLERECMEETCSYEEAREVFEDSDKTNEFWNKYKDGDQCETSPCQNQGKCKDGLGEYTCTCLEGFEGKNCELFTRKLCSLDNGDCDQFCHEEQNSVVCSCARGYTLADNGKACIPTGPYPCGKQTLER
Chain of TF/FVIIa (P08709 213-466 limits assumed): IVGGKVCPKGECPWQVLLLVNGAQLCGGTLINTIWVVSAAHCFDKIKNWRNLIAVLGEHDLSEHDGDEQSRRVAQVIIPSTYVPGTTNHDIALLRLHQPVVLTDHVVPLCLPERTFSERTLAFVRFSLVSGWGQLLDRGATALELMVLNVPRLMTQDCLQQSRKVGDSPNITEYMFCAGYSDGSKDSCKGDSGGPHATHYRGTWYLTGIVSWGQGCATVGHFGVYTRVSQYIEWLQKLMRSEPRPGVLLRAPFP
Chain of TF/FVIIa (P08709 61-212 partner limits assumed): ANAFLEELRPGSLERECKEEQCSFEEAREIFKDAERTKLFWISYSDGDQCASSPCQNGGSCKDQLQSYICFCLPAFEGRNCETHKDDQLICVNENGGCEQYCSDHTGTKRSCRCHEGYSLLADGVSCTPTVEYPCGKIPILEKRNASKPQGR
Chain of TF/FVIIa (P13726 33-295 partner): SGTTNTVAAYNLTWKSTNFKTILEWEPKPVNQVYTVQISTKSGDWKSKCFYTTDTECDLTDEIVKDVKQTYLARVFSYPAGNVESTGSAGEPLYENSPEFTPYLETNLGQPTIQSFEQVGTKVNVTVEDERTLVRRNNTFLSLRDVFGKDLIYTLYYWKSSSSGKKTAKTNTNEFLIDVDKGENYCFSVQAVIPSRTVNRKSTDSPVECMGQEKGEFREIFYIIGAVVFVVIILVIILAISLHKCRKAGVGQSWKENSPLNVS

Regarding `Cc1cc(NC(=O)[C@@H](CC(C)C)NC(=O)c2ccc(Cl)s2)ccc1N1CCOCC1=O` [Compound 1A, (R)-2-[(5-chlorothiophene-2-carbonyl)amino]-N-[3-methyl-4-(3-oxomorpholin-4-yl)phenyl]-4-methylvaleramide], the IC50 on FXa was found to be 7.3 nM; on TF/FVIIa it was 6.9 nM. `CC(C)C[C@@H](NC(=O)c1ccc(Cl)s1)C(=O)Nc1ccc(N2CCCCC2=N)cc1` [Compound 4A, (R)-2-[(5-chlorothiophene-2-carbonyl)amino]-N-[4-(2-iminopiperidin-1-yl)phenyl]-4-methylvaleramide] displayed an IC50 on FXa of 25 nM. Same read-out and setting: the figure for `CC(C)C[C@@H](NC(=O)c1ccc(Cl)s1)C(=O)Nc1ccc(-n2ccncc2=O)cc1` [Compound 2A, (R)-2-[(5-chlorothiophene-2-carbonyl)amino]-N-[4-(2-oxo-2H-pyrazin-1-yl)phenyl]4-methylvaleramide] is 39 nM.

`CC(C)C[C@H](NC(=O)c1ccc(Cl)s1)C(=O)Nc1ccc(N2CCCCC2=N)cc1` [Compound 4B, (S)-2-[(5-chlorothiophene-2-carbonyl)amino]-N-[4-(2-iminopiperidin-1-yl)phenyl]-4-methylvaleramide] gave an IC50 against FXa of 260 nM.

Usually IC50 stands for the concentration that gives 50% inhibition. High values mean weaker potency, low ones greater potency.
